Source: patent publication US20250151740A1, “COMPOSITION FOR PREVENTING FUNGAL SPOILAGE IN POST-HARVEST FRUITS, VEGETABLES AND FLOWERS, METHOD AND USE THEREOF” (BIOBAB R&D, S.L., priority 2022, published 2025)
Entries after “also recorded” stand apart in the source; their conditions may differ.

How the values were obtained:
Monilinia sp = test: Vapor-agar contact method, colony diameter; type: cell-based
Protocol: (§1) The fungi grown on strawberries was isolated and cultured on potato dextrose agar (PDA, Condalab, Madrid Spain) The fungus was identified as Monilinia sp.
Antifungal activity was determined by the vapor-agar contact method previously described by Sekiyama et al.. Fungi were cultured on potato dextrose agar (PDA) medium at 27° C. for a week. Fungal spores were then inoculated in the center of PDA plates which were aseptically placed in a chamber without lids.
A controlled release diffuser as described in examples 1 and 2 was used. In this example 3 doses of β-cyclocitral (β-CC) were used: 20, 50 and 100 μL.
The diffusers were introduced into the chambers, 6 cm far from the PDA plate, followed by proper sealing. Incubation in the chambers was performed at 27° C. for 3-5 days. The inhibitory activity was evaluated by measuring the diameter of colonies formed by the tested fungal strains. The minimum inhibitory dose (MID) was defined as the lowest concentration (mg/L in air) of volatile compounds which inhibited colony formation of test fungi by 50%.

Monilinia sp. = test: Compartment PDA plate, β-CC and eucalyptol on cellulose, mycelium growth inhibition; type: cell-based; conditions: 25 μl of the single substance, 27° C., 3-5 days
Protocol: as §1
(§2) Fungal spores were then inoculated in the center of the compartment with PDA (40 mm diameter) and a small piece of cellulose with different volume of β-cyclocitral (β-CC) (composition of the present invention) and Eucalyptol was placed in one of the empty compartments. The plates were incubated at 27° C. for 3-5 days and the growth area of the mycelium and % of inhibition was measured.

Colletotrichum = test: Vapor-agar contact method (modified, three-compartment petri dish); type: cell-based; conditions: 50 μL, 27° C., 3-5 days
Protocol: (§3) Inhibitory effects on the spore germination of other filamentous fungi, specifically Phytophtera nicotiana, Taphrina deformans, Colletotrichum and Rhizopus sp., were examined by the vapor-agar contact method described in example 1 with a slight modification as follows. Fungi were cultured on potato dextrose agar (PDA) medium at 27° C. for a week. It was used petri dish with three compartment, one compartment was filled out with PDA and another two was kept empty,
as §2, with “50 μL” for “different volume”, “invention)” for “invention) and Eucalyptol”

Phytophtera nicotiana = test: as above; type: cell-based; conditions: 50 μL; stated in text for all fungi of the example
Protocol: as §3
as §2, with “50 μL” for “different volume”, “invention)” for “invention) and Eucalyptol”

Rhizopus sp. = test: as above; type: cell-based; conditions: 50 μL
Protocol: as §3
as §2, with “50 μL” for “different volume”, “invention)” for “invention) and Eucalyptol”

Taphrina deformans = test: as above; type: cell-based; conditions: 50 μL, 27° C., 3-5 days
Protocol: as §3
as §2, with “50 μL” for “different volume”, “invention)” for “invention) and Eucalyptol”

strawberries = test: In vivo test on strawberries with controlled release diffuser; conditions: diffuser with 50 μL, 20° C., darkness, approx. 7 days, versus control; listed as composition of the present invention
Protocol: Mature strawberries were brought directly from local market and sent to laboratory within 2 hours. The strawberries were divided into two equal groups and each group of strawberries was placed in a box.
(§4) One group of strawberries were not exposed to any product (control) and another group of strawberries were exposed to a controlled release diffuser that contains the composition of the present invention. The controlled release diffuser was prepared using cellulose sheets (0.2 cm thick) in pieces (2×1 cm) and impregnated with 50 μL of pure β-cyclocitral (β-CC). These sheets were inserted into polyethylene bags (3×3 cm) that were subsequently heat-sealed.
The diffuser was place in the middle of one box from 10 cm to the surface of strawberries. The two boxes were covered with a plastic bag to keep inside a homogeneous atmosphere. Boxes were kept in an acclimated chamber (20° C., darkness) until the symptoms of fungi degradation (approx. 7 days).

cherries = test: In vivo test on cherries with controlled release diffuser; conditions: diffuser with 50 μl, 20° C., darkness, 6 days; control approximately 23%
Protocol: Mature cherries were brought directly from Spanish farm and sent to laboratory within 24 hours. The cherries were divided into two equal groups and each group of cherries was placed in a plate.
as §4, with “cherries” for “strawberries”, “μl” for “μL”
The diffuser was placed in the bottom of one plate. The two plates were covered with a plastic bag to keep inside a homogeneous atmosphere. Boxes were kept in an acclimated chamber (20° C., darkness) for 6 days.
Finally, the cherries (control and exposed to the composition) were separate into two groups: fruits able to consume (not sign of fungi) and fruits not able to consume (signs of fungi).

roses = test: In vivo test on roses with controlled release diffuser; conditions: diffuser with 50 μL, 20° C., darkness, approx. 7 days, versus control
Protocol: Roses were brought directly from local market and sent to laboratory within 12 hours. The roses were divided into two equal groups and each group of roses was placed in a jar filled with tap water.
as §4, with “roses” for “strawberries”
The diffuser was place in the middle of jar from 20 cm to the surface of the petals. The two jars were covered with a plastic bag to keep inside a homogeneous atmosphere. jars were kept in an acclimated chamber (20° C., darkness) until the symptoms of fungi degradation (approx. 7 days).

CC1=C(C=O)C(C)(C)CCC1 [β-CC, beta-cyclocitral] was tested, and the inhibition (Monilinia sp; concentrations higher than 50 μL) was “more than 60%”, the inhibition (Monilinia sp; concentrations of 100 μL) was 80-100% and the “doses that inhibit 50% of mycelium fungi (MID)” value (Monilinia sp; from linear model y=1.01X+4.2047, doses 20, 50 and 100 μL, 27° C., 3-5 days) was 45.34 µL. The “% Inhibition” value (Monilinia sp.) was 78.22%, the “% Inhibition” value (Colletotrichum) was 99.00% and the Growth area (Colletotrichum) was 6.15 cm^2. For the same molecule, the growth inhibition (Phytophtera nicotiana) was 100%, the “% Inhibition” value (Rhizopus sp.; 27° C., 3-5 days) was 62.55% and the Growth area (Rhizopus sp.; 27° C., 3-5 days) was 1.45 cm^2. For the same molecule, the “effect on spore germination (FIG. 3)” value (Rhizopus sp.; versus control) was “inhibitory effect on the spore germination”, the “% Inhibition” value (Taphrina deformans) was 100% and the Growth area (Taphrina deformans) was 0 cm^2. The “rot / fungi contamination of strawberries” value (strawberries) was “less fungi contamination; also recorded: less rot”, the “cherries suitable for consumption” value (cherries) was “approximately 65%” and the spots on roses (roses) was “less spots”.
